Common to all, as to assay type: in vivo
Assay [1] concerns Blattella germanica. Nature of the assay: Knockdown spray test on Blattella germanica, 2.0% w/v oil formulation (Test Example 1). The note with it: topical, 0.25 h, active ingredient 2.0% w/v, 1.5 ml sprayed, within 15 minutes, read-out: knockdown rate of the test insects within 15 minutes. In outline:
(§1)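 Ten German cockroaches (5 males, 5 females) in a mesh-bottomed, butter-walled container were sprayed with 1.5 ml test solution from 60 cm at 0.42 kg/cm^2 inside a chamber.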

In assay [2] the test system is Musca domestica. Nature of the assay: Knockdown spray test on adult Musca domestica (Test Example 3). The note with it: topical, 0.25 h, active ingredient 2.0% w/v, 0.5 ml sprayed, within 15 minutes, read-out: knockdown rate of the test insects within 15 minutes. An outline of the steps: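 Ten adult house flies (5 male, 5 female) in a gauze-covered cup sprayed with 0.5 ml test solution from 30 cm at 0.9 kg/cm^2 inside a chamber, then removed. Knocked-down flies counted at 2, 5 and 15 min and expressed as % of insects tested.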

The subject of assay [3] is Culex pipiens pallens. Nature of the assay: Knockdown spray test on adult Culex pipiens pallens (Test Example 4). The note with it: topical, 0.25 h, active ingredient 0.1% w/v, 0.5 ml sprayed, within 15 minutes, read-out: knockdown rate of the test insects within 15 minutes. In outline: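 Knockdown counts were taken 2, 5 and 15 min after spraying and expressed as percent of the 10 adults tested. For the spray, 0.5 ml of solution was applied by spray gun (0.4 kg/cm^2) from 30 cm above a gauze-covered cup in a test chamber; the cup was taken out right after spraying.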

The next assay relates to Aphis gossypii. Nature of the assay: Foliar spray test on Aphis gossypii on cucumber (Test Example 8). The note with it: 144 h, 500 ppm spray 20 ml/cup, Sir days after spraying, read-out: controlling value. As to the method: On the other hand, cucumber was planted in a polyethylene cup and grown until the first true leaf was spread, and about 20 Aphis gossypii were allowed to parasitize the cucumber. One day after, the test spray solution was sprayed to the cucumber at a ratio of 20 ml/cup. Sir days after spraying, the number of Aphis gossypii was investigated, and the controlling value was calculated according to the following equation. Controlling value (%)={1−(Cb×Tai)/(Cai×Tb)}×100 In the equation, the symbols represent as follows. Cb: the number of insects in a non-treated section before treatment Cai: the number of insects in a non-treated section on observation Tb: the number of insects in a treated section before treatment Tai: the number of insects in a treated section on observation

The next assay concerns Plutella xylostella. Nature of the assay: Foliar spray test on Plutella xylostella on cabbage (Test Example 10). The settings on record: 120 h, third instar larvae of Plutella xylostella on cabbage, 500 ppm spray 20 ml/cup, after five days, read-out: controlling value. In outline:
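Cabbage at the third–fourth true-leaf stage sprayed with test solution at 20 ml/cup, dried, then infested with 10 third-instar larvae. Insects counted after five days; controlling value (%) calculated from treated and non-treated counts before treatment and at observation.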

The subject of another assay is Spodoptera litura. Nature of the assay: Foliar spray test on Spodoptera litura on cabbage (Test Example 11). The note with it: 96 h, fourth instar larvae of Spodoptera litura on cabbage, 500 ppm spray 20 ml/cup, after 4 days, read-out: controlling value. An outline of the steps: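 Cabbage is grown in cups to the third–fourth true leaf and sprayed at 20 ml/cup. Once the spray has dried, 10 fourth-instar larvae are released per cup and survivors are counted after 4 days. Controlling value (%) is corrected using pre-treatment and observation counts in treated and untreated sections.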

For assay [4], the system named is Adoxophyes orana fasciata. Nature of the assay: Spray test on Adoxophyes orana fasciata on apple seedling (Test Example 12). The note with it: 168 h, first-instar larvae of Adoxophyes orana fasciata on apple seedling, 20 ml spray, seven days after spraying. As to the method: On the other hand, 20 ml of the test spray solution was each sprayed on an apple seedling (28 days after sowing, a tree height of about 15 cm) planted in a plastic cup. After the drug solution sprayed on the apple was air-dried, about 30 first-instar larvae of Adoxophyes orana fasciata were released. Seven days after spraying, the number of surviving Adoxophyes orana fasciata on the apple seedling was investigated, and the controlling value was calculated according to the following equation. Controlling value (%)={1−(Cb×Tai)/(Cai×Tb)}×100 In the equation, the symbols represent as follows. Cb: the number of insects in a non-treated section before treatment Cai: the number of insects in a non-treated section on observation Tb: the number of insects in a treated section before treatment Tai: the number of insects in a treated section on observation

The test system of assay [5] is Blattella germanica. Nature of the assay: Knockdown spray test on Blattella germanica, 0.1% w/v oil formulation (Test Example 2). The settings on record: topical, 0.25 h, active ingredient 0.1% w/v, 1.5 ml sprayed, within 15 minutes, read-out: knockdown rate of the test insects within 15 minutes. An outline of the steps:
as §1

Assay [6] has as its system Culex pipiens pallens. Nature of the assay: Larvicidal test on Culex pipiens pallens, eight days (Test Example 7). The settings on record: 192 h; last-instar larvae of Culex pipiens pallens; 3.5 ppm in water; eight days later; read-out: death rate. In outline: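 Twenty last-instar larvae placed in 100 ml ion-exchanged water containing test drug at 3.5 ppm active ingredient. Mortality scored after eight days; death rate = dead/tested × 100.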

The subject of assay [7] is Musca domestica. Nature of the assay: Filter paper/sucrose bait death rate test on Musca domestica (Test Example 5). The settings on record: female imagoes of Musca domestica, 0.7 ml on filter paper, after 24 hours. In outline: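 Ten female imagoes were confined in a sealed cup over a filter paper treated with 0.7 ml of test solution and 30 mg sucrose bait. Mortality was scored at 24 h and expressed as percent of tested insects killed.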

Assay [8] deals with Culex pipiens pallens. Nature of the assay: Larvicidal test on Culex pipiens pallens, one day (Test Example 6). The note with it: 24 h; last-instar larvae of Culex pipiens pallens; 3.5 ppm in water; one day later; read-out: death rate. An outline of the steps: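 Twenty last-instar larvae were placed in 100 ml ion-exchanged water holding 0.7 ml of a 500 ppm aqueous dilution of the formulated compound, giving 3.5 ppm active ingredient. Survival was scored after one day and death rate expressed as dead/tested × 100.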

A value given as a limit tells only on which side of the number the result lay.

As for `O=C(NCC1CCOCC1)c1cc(COCc2cccc(C(F)(F)F)c2)on1` [(65)], the pest or weed control at 2 % strength in the assay on Blattella germanica [1] and with Musca domestica [2] was not below 80% throughout. For the same molecule, the pest or weed control at 0.1 % strength in the assay on Culex pipiens pallens [3] is not below 80%. Further, the pest or weed control at 500 ppm was not below 90% with Aphis gossypii, not below 90% with Plutella xylostella, not below 80% in the assay with Spodoptera litura and 100% in assay [4].

With `O=C(NCC1CCOCC1)c1cc(COCc2ccc(Cl)c(Cl)c2)on1` [(73), N-(tetrahydropyran-4-ylmethyl)-5-(3,4-dichlorobenzyloxymethyl)isoxazole-3-carboxamide], the pest or weed control at 0.1 % strength with Blattella germanica [5] and in the assay on Culex pipiens pallens [3] was not below 80% in each case. In addition, the pest or weed control at 3.5 ppm with Culex pipiens pallens [6] was not below 90%. Further, the pest or weed control at 500 ppm is not below 90% with Aphis gossypii, not below 90% with Plutella xylostella, not below 80% in the assay with Spodoptera litura and 100% in assay [4].

In the case of `O=C(NCC1CCOC1)c1cc(CCCCCCCOc2ccc3ccccc3n2)on1` (stereo not drawn) [(150), N-(tetrahydrofuran-3-ylmethyl)-5-[7-(2-quinolyloxy)heptyl]isoxazole-3-carboxamide], the pest or weed control at 2 % strength with Musca domestica [2] is not below 80%. Besides, in the assay on Culex pipiens pallens [3], the pest or weed control at 0.1 % strength is not below 80%. Besides, the values for the pest or weed control at 500 ppm (in the assay on Musca domestica [7]; in the assay with Plutella xylostella; in assay [4]) were not below 90%, not below 90% and 100%, respectively. Also, the pest or weed control at 3.5 ppm with Culex pipiens pallens [8] and with Culex pipiens pallens [6] was not below 90% each time.

On to `O=C(NCC1CCOC1)c1noc(COCc2ccccc2)c1C(F)F` (stereo not drawn) [(171), N-(tetrahydrofuran-3-ylmethyl)-(5-benzyloxymethyl-4-difluoromethyl)isoxazole-3-carboxamide], for which the pest or weed control at 0.1 % strength in the assay on Culex pipiens pallens [3] was not below 80%. In addition, the pest or weed control at 3.5 ppm in the assay on Culex pipiens pallens [8] and with Culex pipiens pallens [6] was not below 90% in each case. Further, the results for the pest or weed control at 500 ppm (in the assay on Plutella xylostella; in the assay with Spodoptera litura; in [4]) were not below 90%, not below 80% and 100%, respectively.

Take `O=C(NCC1CCOCC1)c1cc(COc2ccc(Cl)c(Cl)c2)on1` [(183)]: in the assay on Culex pipiens pallens [3], the pest or weed control at 0.1 % strength is not below 80%. The pest or weed control at 3.5 ppm with Culex pipiens pallens [8] and with Culex pipiens pallens [6] was not below 90% in each case. The figures for the pest or weed control at 500 ppm (in the assay on Spodoptera litura; in assay [4]) were not below 80% and 100%, respectively.

Regarding `O=C(NCC1CCOC1)c1cc(CCCc2ccc3c(c2)OCO3)on1` (stereo not drawn) [(234), N-(tetrahydrofuran-3-ylmethyl)-5-[3-(1,3-benzodioxolan-5-yl)propyl]isoxazole-3-carboxamide], the pest or weed control at 0.1 % strength in the assay on Blattella germanica [5] and in the assay on Culex pipiens pallens [3] was not below 80% throughout. For the same molecule, the pest or weed control at 500 ppm is not below 90% with Musca domestica [7], not below 90% with Plutella xylostella, not below 80% with Spodoptera litura and 100% in [4]. In addition, the pest or weed control at 3.5 ppm in the assay with Culex pipiens pallens [8] is not below 90%.

For the origin of these results see patent publication US20150344466A1 (SUMITOMO CHEMICAL COMPANY, LIMITED, priority 2013, published 2015).
